{"source": "paper PMC11589570", "about": "“Critical assessment of LC3/GABARAP ligands used for degrader development and ligandability of LC3/GABARAP binding pockets” (Nature Communications, 2024)", "key": {"all LC3/GABARAPs": {"tested_on": "all LC3/GABARAPs", "experiment": "Covalent compound screening by ESI LC-MS", "conditions": "50 µM protein, 100 µM compound, 90 min"}, "LC3B": {"target": "LC3B (Homo sapiens, UniProt Q9GZQ8)", "experiment": "FP assay with Cy5-labelled p62 LIR tracer (protein titration and tracer displacement)", "assay_type": "binding", "conditions": "for normalized FP signal, p62 LIR tracer displacement: LC3B; for compound titration LC3B (displacement curve, FP signal): two replicate columns per compound"}, "GABARAP": {"target": "GABARAP (Homo sapiens, UniProt O95166)", "sequence (O95166 1-116)": "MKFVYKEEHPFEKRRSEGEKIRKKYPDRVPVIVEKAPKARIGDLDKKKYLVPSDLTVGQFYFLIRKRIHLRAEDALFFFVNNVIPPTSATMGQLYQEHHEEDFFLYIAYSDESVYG", "experiment": "FP assay with Cy5-labelled p62 LIR tracer (protein titration and tracer displacement)", "assay_type": "binding", "conditions": "two replicate columns per compound"}, "LC3A": {"target": "LC3A (Homo sapiens, UniProt Q9H492)", "experiment": "FP assay with Cy5-labelled p62 LIR tracer (protein titration and tracer displacement)", "assay_type": "binding", "conditions": "two replicate columns per compound"}, "GABARAPL1": {"target": "GABARAPL1 (Homo sapiens, UniProt Q9H0R8)", "sequence (Q9H0R8 whole entry)": "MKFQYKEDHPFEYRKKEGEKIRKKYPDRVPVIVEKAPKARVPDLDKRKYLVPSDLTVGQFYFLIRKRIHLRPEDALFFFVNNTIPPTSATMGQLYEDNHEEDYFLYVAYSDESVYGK", "experiment": "FP assay with Cy5-labelled p62 LIR tracer (protein titration and tracer displacement)", "assay_type": "binding", "conditions": "for compound titration GABARAPL1 (displacement curve, FP signal): two replicate columns per compound; for FP tracer displacement curve signal (compound titration): duplicate values, listed as Cov2"}, "LC3C": {"target": "LC3C (Homo sapiens, UniProt Q9BXW4)", "sequence (Q9BXW4 1-126)": "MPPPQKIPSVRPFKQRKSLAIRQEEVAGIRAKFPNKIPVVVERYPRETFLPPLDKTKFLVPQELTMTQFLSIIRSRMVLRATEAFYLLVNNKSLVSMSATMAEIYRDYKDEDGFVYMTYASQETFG", "experiment": "FP assay with Cy5-labelled p62 LIR tracer (protein titration and tracer displacement)", "assay_type": "binding", "conditions": "two replicate columns per compound"}, "[1]": {"conditions": "log10 concentration [M] -3.82391"}, "[2]": {"conditions": "log10 concentration [M] -4.1549"}, "[3]": {"conditions": "log10 concentration [M] -4.60206"}, "[4]": {"conditions": "log10 concentration [M] -5.30103"}, "[5]": {"conditions": "log10 concentration [M] -5.69897"}, "[6]": {"conditions": "log10 concentration [M] -6.22185"}, "[7]": {"conditions": "log10 concentration [M] -6.69897"}, "[8]": {"conditions": "log10 concentration [M] -7.30103"}, "[9]": {"conditions": "log10 concentration [M] -7.79588"}, "[10]": {"conditions": "log10 concentration [M] -8.08092"}}, "note": "Values joined by “and” are separate entries in the source; they are usually repeats but may differ in a detail not shown here. Equal entries are not always repeated.", "data": [{"compound": "CC(=O)N1CCN(CCNC=C2C(=O)CC(c3ccc(Cl)cc3)CC2=O)CC1", "note": "(stereo not drawn) [compound 6]", "values": [{"measurement": "covalent labelling (mass shift, ESI MS)", "setting": "all LC3/GABARAPs", "result": "successfully labelled"}, {"measurement": "normalized FP signal, p62 LIR tracer displacement", "setting": "LC3B; [1]", "result": "71.5789 and 68.1579"}, {"measurement": "normalized FP signal, p62 LIR tracer displacement", "setting": "LC3B; [2]", "result": "85 and 83.6842"}, {"measurement": "normalized FP signal, p62 LIR tracer displacement", "setting": "LC3B; [3]", "result": "92.8947 and 95.7895"}, {"measurement": "normalized FP signal, p62 LIR tracer displacement", "setting": "LC3B; log10 concentration [M] -5", "result": "95.7895 and 97.3684"}, {"measurement": "normalized FP signal, p62 LIR tracer displacement", "setting": "LC3B; [4]", "result": "97.6316 and 99.7368"}, {"measurement": "normalized FP signal, p62 LIR tracer displacement", "setting": "LC3B; [5]", "result": "96.0526 and 102.368"}, {"measurement": "normalized FP signal, p62 LIR tracer displacement", "setting": "LC3B; [6]", "result": "95 and 100.789"}, {"measurement": "normalized FP signal, p62 LIR tracer displacement", "setting": "LC3B; [7]", "result": "99.2105 and 96.8421"}, {"measurement": "normalized FP signal, p62 LIR tracer displacement", "setting": "LC3B; [8]", "result": "99.7368 and 100.263"}, {"measurement": "normalized FP signal, p62 LIR tracer displacement", "setting": "LC3B; [9]", "result": "97.6316 and 101.579"}, {"measurement": "normalized FP signal, p62 LIR tracer displacement", "setting": "LC3B; [10]", "result": "95.2632 and 105.263"}, {"measurement": "compound titration LC3B (displacement curve, FP signal)", "setting": "LC3B; [1]", "result": "71.5789 and 68.1579"}, {"measurement": "compound titration LC3B (displacement curve, FP signal)", "setting": "LC3B; [2]", "result": "85 and 83.6842"}, {"measurement": "compound titration LC3B (displacement curve, FP signal)", "setting": "LC3B; [3]", "result": "92.8947 and 95.7895"}, {"measurement": "compound titration LC3B (displacement curve, FP signal)", "setting": "LC3B; log10 concentration [M] -5", "result": "95.7895 and 97.3684"}, {"measurement": "compound titration LC3B (displacement curve, FP signal)", "setting": "LC3B; [4]", "result": "97.6316 and 99.7368"}, {"measurement": "compound titration LC3B (displacement curve, FP signal)", "setting": "LC3B; [5]", "result": "96.0526 and 102.368"}, {"measurement": "compound titration LC3B (displacement curve, FP signal)", "setting": "LC3B; [6]", "result": "95 and 100.789"}, {"measurement": "compound titration LC3B (displacement curve, FP signal)", "setting": "LC3B; [7]", "result": "99.2105 and 96.8421"}, {"measurement": "compound titration LC3B (displacement curve, FP signal)", "setting": "LC3B; [8]", "result": "99.7368 and 100.263"}, {"measurement": "compound titration LC3B (displacement curve, FP signal)", "setting": "LC3B; [9]", "result": "97.6316 and 101.579"}, {"measurement": "compound titration LC3B (displacement curve, FP signal)", "setting": "LC3B; [10]", "result": "95.2632 and 105.263"}, {"measurement": "compound titration GABARAP (displacement curve, FP signal)", "setting": "GABARAP; [1]", "result": "90.8621 and 84.1379"}, {"measurement": "compound titration GABARAP (displacement curve, FP signal)", "setting": "GABARAP; [2]", "result": "94.8276 and 93.7931"}, {"measurement": "compound titration GABARAP (displacement curve, FP signal)", "setting": "GABARAP; [3]", "result": "93.1034 and 98.2759"}, {"measurement": "compound titration GABARAP (displacement curve, FP signal)", "setting": "GABARAP; log10 concentration [M] -5", "result": "100.69 and 98.6207"}, {"measurement": "compound titration GABARAP (displacement curve, FP signal)", "setting": "GABARAP; [4]", "result": "97.5862 and 99.4828"}, {"measurement": "compound titration GABARAP (displacement curve, FP signal)", "setting": "GABARAP; [5]", "result": "92.2414 and 94.1379"}, {"measurement": "compound titration GABARAP (displacement curve, FP signal)", "setting": "GABARAP; [6]", "result": "97.4138 and 95.5172"}, {"measurement": "compound titration GABARAP (displacement curve, FP signal)", "setting": "GABARAP; [7]", "result": "98.1034 and 97.7586"}, {"measurement": "compound titration GABARAP (displacement curve, FP signal)", "setting": "GABARAP; [8]", "result": "98.9655 and 102.759"}, {"measurement": "compound titration GABARAP (displacement curve, FP signal)", "setting": "GABARAP; [9]", "result": "95.6897 and 95"}, {"measurement": "compound titration GABARAP (displacement curve, FP signal)", "setting": "GABARAP; [10]", "result": "97.069 and 98.9655"}, {"measurement": "compound titration LC3A (displacement curve, FP signal)", "setting": "LC3A; [1]", "result": "92.8947 and 97.3684"}, {"measurement": "compound titration LC3A (displacement curve, FP signal)", "setting": "LC3A; [2]", "result": "97.1053 and 102.368"}, {"measurement": "compound titration LC3A (displacement curve, FP signal)", "setting": "LC3A; [3]", "result": "99.7368 and 100.789"}, {"measurement": "compound titration LC3A (displacement curve, FP signal)", "setting": "LC3A; log10 concentration [M] -5", "result": "103.421 and 103.947"}, {"measurement": "compound titration LC3A (displacement curve, FP signal)", "setting": "LC3A; [4]", "result": "103.421 and 100.789"}, {"measurement": "compound titration LC3A (displacement curve, FP signal)", "setting": "LC3A; [5]", "result": "99.7368 and 96.0526"}, {"measurement": "compound titration LC3A (displacement curve, FP signal)", "setting": "LC3A; [6]", "result": "101.316 and 102.105"}, {"measurement": "compound titration LC3A (displacement curve, FP signal)", "setting": "LC3A; [7]", "result": "103.947 and 107.368"}, {"measurement": "compound titration LC3A (displacement curve, FP signal)", "setting": "LC3A; [8]", "result": "104.211 and 101.579"}, {"measurement": "compound titration LC3A (displacement curve, FP signal)", "setting": "LC3A; [9]", "result": "104.211 and 98.6842"}, {"measurement": "compound titration LC3A (displacement curve, FP signal)", "setting": "LC3A; [10]", "result": "104.211 and 93.9474"}, {"measurement": "compound titration GABARAPL1 (displacement curve, FP signal)", "setting": "GABARAPL1; [1]", "result": "89 and 90.4286"}, {"measurement": "compound titration GABARAPL1 (displacement curve, FP signal)", "setting": "GABARAPL1; [2]", "result": "94.7143 and 97.7143"}, {"measurement": "compound titration GABARAPL1 (displacement curve, FP signal)", "setting": "GABARAPL1; [3]", "result": "98.2857 and 100.143"}, {"measurement": "compound titration GABARAPL1 (displacement curve, FP signal)", "setting": "GABARAPL1; log10 concentration [M] -5", "result": "102.429 and 101.571"}, {"measurement": "FP tracer displacement curve signal (compound titration)", "setting": "GABARAPL1; [5]", "result": "94.4286 and 98.2857"}, {"measurement": "FP tracer displacement curve signal (compound titration)", "setting": "GABARAPL1; [6]", "result": "101.857 and 101.143"}, {"measurement": "FP tracer displacement curve signal (compound titration)", "setting": "GABARAPL1; [7]", "result": "102.714 and 104.571"}, {"measurement": "FP tracer displacement curve signal (compound titration)", "setting": "GABARAPL1; [8]", "result": "102.571 and 101.857"}, {"measurement": "FP tracer displacement curve signal (compound titration)", "setting": "GABARAPL1; [9]", "result": "99.8571 and 100.429"}, {"measurement": "FP tracer displacement curve signal (compound titration)", "setting": "GABARAPL1; [10]", "result": "102.571 and 101"}, {"measurement": "compound titration LC3C (displacement curve, FP signal)", "setting": "LC3C; [1]", "result": "87.8 and 86.8"}, {"measurement": "compound titration LC3C (displacement curve, FP signal)", "setting": "LC3C; [2]", "result": "94.6 and 92"}, {"measurement": "compound titration LC3C (displacement curve, FP signal)", "setting": "LC3C; [3]", "result": "98.2 and 98.8"}, {"measurement": "compound titration LC3C (displacement curve, FP signal)", "setting": "LC3C; log10 concentration [M] -5", "result": "94.6 and 102.4"}, {"measurement": "compound titration LC3C (displacement curve, FP signal)", "setting": "LC3C; [4]", "result": "93.4 and 98.8"}, {"measurement": "compound titration LC3C (displacement curve, FP signal)", "setting": "LC3C; [5]", "result": "90 and 93.6"}, {"measurement": "compound titration LC3C (displacement curve, FP signal)", "setting": "LC3C; [6]", "result": "93.6 and 98.6"}, {"measurement": "compound titration LC3C (displacement curve, FP signal)", "setting": "LC3C; [7]", "result": "97.6 and 98.8"}, {"measurement": "compound titration LC3C (displacement curve, FP signal)", "setting": "LC3C; [8]", "result": "101.6 and 101.4"}, {"measurement": "compound titration LC3C (displacement curve, FP signal)", "setting": "LC3C; [9]", "result": "90.4 and 95.6"}, {"measurement": "compound titration LC3C (displacement curve, FP signal)", "setting": "LC3C; [10]", "result": "99.2 and 98"}]}]}
